# Experimental data reported in paper PMC8037910, “Effect of Chronic Administration of 5-(3-chlorophenyl)-4-Hexyl-2,4 -Dihydro-3H-1,2,4-Triazole-3-Thione (TP-315)—A New Anticonvulsant Drug Candidate—On Living Organisms” (International Journal of Molecular Sciences, 2021).
# Like-named read-outs stand apart in the source and are kept apart here.
# Experiments:
# CYP2C19 = molecular target: T1, CYP2C19 (Homo sapiens, UniProt P33261); assay: Vivid CYP450 screening kit, CYP2C19; assay type: biochemical; details: 0.015 µg/mL, 20 min incubation, p < 0.05
# T1 construct: purchased Thermo Fisher Scientific
# Experimental: (§1) Possible inhibitory effect of TP-315 on the catalytic activity of human cytochrome CYP450 enzymes was tested using Vivid CYP450 screening kits (Thermo Fisher Scientific, Waltham, MA, USA) according to the manufacturer’s standard procedure (Vivid BOMCC substrate CYP2B6 blue, Vivid DBOMF substrate CYP3A4 green, Vivid DBOMF substrate CYP3A5 green, Vivid EOMCC substrate CYP2C19 blue, Vivid MOBFC substrate CYP2D6 cyan). The experiment was carried out in the endpoint test mode (reading after 20 min of incubation). The test compound was dissolved in DMSO (starting concentrations, 2.5× concentrated); to avoid the influence of the solvent on the enzyme activity, the results were compared with the solvent control. The influence of TP-315 on the activity of selected enzymes was tested at concentrations of 0.015, 0.1, 0.5, 1, 2.5, 5, and 10 μg/mL. The positive control compounds (inhibitors) were miconazole (for CYP2C19 and CYP2B6), quinidine (for CYP2D6), and ketoconazole (for CYP3A4 and CYP3A5). Inhibitor concentrations were selected according to the manufacturer’s recommendations to achieve ≥90% inhibition. All inhibitors were obtained from Sigma-Aldrich (St. Louis, MO, USA). The BioTek Synergy H1 reader (BioTek Instruments, Inc., USA) was used to read the fluorescence according to the manufacturer’s guidelines. The tests were performed in duplicate.
# mice = system: mice; set-up: method as in PMID 23291122, PMID 25226229, PMID 25090118; unit not given here; details: chimney test, cited from earlier work
# Albino Swiss mice [1] = assay: Morphological blood parameters after chronic administration; assay type: in vivo; details: 47.6 mg/kg i.p. for 14 days
# Experimental: (§2) The experiments were carried out on adult male Albino Swiss mice weighing 20 ± 5 g. […] The mice from the control group (8 mice) received 0.9% NaCl solution i.p. once daily for 14 days.
# (§3) After completion of the experimental procedure (on the 15th day—24h after the last injection), the animals were decapitated. Their livers and kidneys were collected for histopathological examination, while blood was drawn for biochemical and morphological tests and for HPLC-FL determination of TP-315 in serum.
# For the determination of biochemical parameters (ALT, AST, GGT, creatinine, urea), whole blood was collected in clotting activator tubes (Sarstadt, Nümbrecht, Germany). To obtain serum, blood tubes were centrifuged at 4200 RPM for 10 min. Biochemical determinations were performed on an ERBA XL 640 analyzer (ERBA Mannheim, Germany) according to the manufacturer’s standard procedure. Whole blood for the determination of morphological parameters was collected in ethylenediaminetetraacetic acid (EDTA) tubes (Sarstadt, Nümbrecht, Germany). Morphological parameters were determined on the MYTHIC 18 Cormay analyzer (Cormay, Lublin, Poland) according to the manufacturer’s standard procedure.
# [2] = system: 6 Hz psychomotor seizure model; set-up: method as in PMID 32253957; details: mice, cited from earlier work
# CYP2B6 = molecular target: T2, CYP2B6 (Homo sapiens, UniProt P20813); assay: Vivid CYP450 screening kit, CYP2B6; assay type: biochemical; details: 0.015 μg/mL, 20 min incubation, p > 0.05
# T2 construct: purchased Thermo Fisher Scientific
# T2 sequence (P20813 1-491): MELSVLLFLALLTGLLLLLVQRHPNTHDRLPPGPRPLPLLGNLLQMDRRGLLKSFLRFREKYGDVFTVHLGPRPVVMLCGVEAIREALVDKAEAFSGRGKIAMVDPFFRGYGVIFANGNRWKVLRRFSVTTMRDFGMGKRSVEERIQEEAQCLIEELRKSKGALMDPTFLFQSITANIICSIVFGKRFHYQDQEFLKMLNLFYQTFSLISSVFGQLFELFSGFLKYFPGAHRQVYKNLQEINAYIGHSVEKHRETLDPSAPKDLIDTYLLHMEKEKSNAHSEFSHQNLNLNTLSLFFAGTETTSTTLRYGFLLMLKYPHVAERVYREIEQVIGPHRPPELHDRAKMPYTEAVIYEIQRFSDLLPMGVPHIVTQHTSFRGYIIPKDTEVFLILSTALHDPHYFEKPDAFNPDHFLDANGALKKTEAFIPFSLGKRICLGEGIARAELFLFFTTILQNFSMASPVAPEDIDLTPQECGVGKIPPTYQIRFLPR
# Experimental: as §1
# Albino Swiss mice [3] = assay: Histopathological examination of kidneys and liver after chronic administration; assay type: in vivo; details: 47.6 mg/kg i.p. for 14 days, H&E staining, vs control group
# Experimental: as §2, §3
# The kidneys and livers of mice from the control and experimental groups were subjected to histopathological evaluation. The organs were fixed in 10% buffered formalin at pH 7.2 and then fixed with increasing concentrations of alcohol solutions, acetone, and xylene in paraffin blocks using a tissue processor (Leica TP-20, Leica Biosystems, Wetzlar, Germany). 4 μm thick tissue sections cut with a sledge microtome (Leica SR-200, Leica Biosystems, Wetzlar, Germany) were transferred onto slides. The preparations for the histopathological samples were stained with hematoxylin and eosin and evaluated under a light microscope (Nikon Eclipse E-600, […]). Reagents were purchased from Sigma-Aldrich (St. Louis, MO, USA).
# [4] = system: maximal electroshock-induced seizure (MES); set-up: method as in PMID 23291122, PMID 25226229, PMID 25090118; details: mice, cited from earlier work
# [5] = molecular target: batrachotoxin-binding site on voltage-gated sodium channels; set-up: method as in PMID 25226229, PMID 30594731, PMID 28824309; details: read-out: Affinity towards Batrachotoxin-Binding Site on Sodium Channels IC50 ± SEM; cited from earlier work
# CYP2D6 = molecular target: T3, CYP2D6 (Homo sapiens, UniProt P10635); assay: Vivid CYP450 screening kit, CYP2D6; assay type: biochemical; details: 0.015 μg/mL, 20 min incubation, p > 0.05
# T3 construct: purchased Thermo Fisher Scientific
# Experimental: as §1
# T1 sequence (P33261 whole entry): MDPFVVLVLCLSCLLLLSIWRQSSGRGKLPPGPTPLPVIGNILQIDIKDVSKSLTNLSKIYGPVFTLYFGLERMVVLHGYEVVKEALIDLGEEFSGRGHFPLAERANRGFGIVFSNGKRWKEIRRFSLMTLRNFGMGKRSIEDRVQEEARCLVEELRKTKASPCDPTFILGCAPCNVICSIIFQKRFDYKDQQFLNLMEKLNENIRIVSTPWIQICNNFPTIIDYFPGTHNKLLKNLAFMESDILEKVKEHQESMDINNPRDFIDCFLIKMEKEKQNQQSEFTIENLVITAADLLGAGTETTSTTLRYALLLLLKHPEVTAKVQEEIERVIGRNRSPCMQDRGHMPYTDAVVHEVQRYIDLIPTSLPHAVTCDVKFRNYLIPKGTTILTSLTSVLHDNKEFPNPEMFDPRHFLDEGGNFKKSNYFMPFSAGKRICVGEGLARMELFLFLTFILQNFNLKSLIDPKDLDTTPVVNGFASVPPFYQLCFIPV
# T3 sequence (P10635 whole entry): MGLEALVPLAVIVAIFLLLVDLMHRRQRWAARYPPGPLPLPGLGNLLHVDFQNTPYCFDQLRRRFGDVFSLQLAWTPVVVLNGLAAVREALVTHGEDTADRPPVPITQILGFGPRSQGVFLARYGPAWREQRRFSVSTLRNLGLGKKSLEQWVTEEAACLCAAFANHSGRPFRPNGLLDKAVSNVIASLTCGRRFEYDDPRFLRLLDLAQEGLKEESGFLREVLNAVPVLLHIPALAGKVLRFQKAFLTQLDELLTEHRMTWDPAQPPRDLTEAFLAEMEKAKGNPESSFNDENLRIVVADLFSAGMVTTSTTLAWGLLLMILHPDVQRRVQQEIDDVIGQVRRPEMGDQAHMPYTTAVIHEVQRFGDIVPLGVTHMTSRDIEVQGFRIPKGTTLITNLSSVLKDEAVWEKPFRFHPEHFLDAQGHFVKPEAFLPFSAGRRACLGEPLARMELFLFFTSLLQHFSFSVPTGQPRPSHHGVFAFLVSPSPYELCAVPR
structure (smiles),measurement,setting,value
"CCCCCCn1c(-c2cccc(Cl)c2)n[nH]c1=S [TP-315, 5-(3-Chlorophenyl)-4-hexyl-2,4-dihydro-3H-1,2,4-triazole-3-thione]",Inhibition of CYP2C19 activity compared to the control,CYP2C19,statistically significantly inhibited
same,Neurotoxicity in Chimney or Rotarod (†) Tests in Mice,mice; pretreatment time 15 min,462.9 ± 20.0
same,Neurotoxicity in Chimney or Rotarod (†) Tests in Mice,mice; pretreatment time 30 min,462.9 ± 20.0
same,Neurotoxicity in Chimney or Rotarod (†) Tests in Mice,mice; pretreatment time 60 min,456.9 ± 19.7
same,Neurotoxicity in Chimney or Rotarod (†) Tests in Mice,mice; pretreatment time 120 min,448.1 ± 21.7
same,Effect of chronic administration on hematological parameters vs control group,Albino Swiss mice [1]; unpaired t-test p > 0.05,does not cause disturbances in the white blood cell and red cell systems
same,"BAS, basophils","Albino Swiss mice [1]; examined group, mean ± SD",0.44 ± 0.19%
same,"EOS, eosinophile","Albino Swiss mice [1]; examined group, mean ± SD",6.54 ± 2.05%
same,"HCT, hematocrit","Albino Swiss mice [1]; examined group, mean ± SD",41.08 ± 3.65%
same,"HGB, hemoglobin concentration","Albino Swiss mice [1]; examined group, mean ± SD",13.88 ± 1.28 g/dL
same,"LYM, lymphocytes","Albino Swiss mice [1]; examined group, mean ± SD",65.7 ± 6.96%
same,"MCH, mean corpuscular hemoglobin","Albino Swiss mice [1]; examined group, mean ± SD",16.62 ± 0.38 pg
same,"MCHC, mean corpuscular hemoglobin concentration","Albino Swiss mice [1]; examined group, mean ± SD",33.84 ± 0.46 g/dL
same,"MCV, mean corpuscular volume","Albino Swiss mice [1]; examined group, mean ± SD",49.1 ± 20.06 µm3
same,"MON, monocytes","Albino Swiss mice [1]; examined group, mean ± SD",4.04 ± 1.17%
same,"MPV, mean platelet volume","Albino Swiss mice [1]; examined group, mean ± SD",5.08 ± 0.25 µm3
same,"NEU, neutrophils","Albino Swiss mice [1]; examined group, mean ± SD",23.28 ± 7.19%
same,"PCT, plateletcrit","Albino Swiss mice [1]; examined group, mean ± SD",0.53 ± 0.16%
same,"PDW, platelet distribution width","Albino Swiss mice [1]; examined group, mean ± SD",15.24 ± 0.17
same,"PLT, platelet","Albino Swiss mice [1]; examined group, mean ± SD",1034.8 ± 268.44 10*3/µL
same,"RBC, red blood cells","Albino Swiss mice [1]; examined group, mean ± SD",8.37 ± 0.84 10*6/μL
same,"RDW-CV, red blood cell distribution width","Albino Swiss mice [1]; examined group, mean ± SD",13.46 ± 0.56%
same,"RDW-SD, red blood cell distribution width standard deviation","Albino Swiss mice [1]; examined group, mean ± SD",28.46 ± 1.36 µm3
same,"WBC, white blood cells","Albino Swiss mice [1]; examined group, mean ± SD",4.25 ± 1.2 10*3/µL
same,Anticonvulsant Activity in 6 Hz Test ED50 ± SEM,[2]; pretreatment time 15 min,61.3 ± 10.1 mg/kg
same,Anticonvulsant Activity in 6 Hz Test ED50 ± SEM,[2]; pretreatment time 30 min,59.7 ± 6.8 mg/kg
same,Anticonvulsant Activity in 6 Hz Test ED50 ± SEM,[2]; pretreatment time 60 min,68.1 ± 11.0 mg/kg
same,Anticonvulsant Activity in 6 Hz Test ED50 ± SEM,[2]; pretreatment time 120 min,136.2 ± 18.3 mg/kg
same,Inhibition of CYP2B6 activity compared to the control,CYP2B6,did not statistically significantly inhibit
same,Histopathological examination of kidneys,Albino Swiss mice [3],no differences in the microscopic structure of kidneys
same,Histopathological examination of liver,Albino Swiss mice [3],normal organ without pathological changes
same,Anticonvulsant Activity in MES Test ED50 ± S.E.,[4]; pretreatment time 15 min,47.6 ± 3.8 mg/kg
same,Anticonvulsant Activity in MES Test ED50 ± S.E.,[4]; pretreatment time 30 min,68.3 ± 10.3 mg/kg
same,Anticonvulsant Activity in MES Test ED50 ± S.E.,[4]; pretreatment time 60 min,98.1 ± 16.4 mg/kg
same,Anticonvulsant Activity in MES Test ED50 ± S.E.,[4]; pretreatment time 120 min,159.7 ± 21.7 mg/kg
same,IC50,[5],6.21 ± 0.8 µM
same,Inhibition of CYP2D6 activity compared to the control,CYP2D6,did not statistically significantly inhibit
